According to patent US6384074B1, “Cell growth activating composition containing compound having labdane structure” (Takasago International Corporation, priority 1998, dated 2002):

How the values were obtained:
[1] = system: B16 melanoma cells; assay: Melanin formation prevention test (melanin production and cell proliferation); format: cell-based; details: for Degree of cell proliferation: relative to ethanol control
Protocol: B16 melanoma cells were suspended (10,000 cells/ml) in DMEM (Dulbecco's modified eagle medium) containing 10% FBS (fetal bovine serum) and 8 ml of the suspension was added to a cell culture bottle with a 25 cm^2 bottom surface area, and cultured at 37° C. in the presence of 5% carbon dioxide for 3 days. After 3 days of culture, the old medium was exchanged with 8 ml of fresh medium. 40 micro-liters of a sample solution, in which compounds of the present invention had been dissolved in ethanol to give a final concentration shown in the table, were further added thereto. As the control, ethanol only was added. After the medium change, the cells were further cultured for 3 days under the same conditions. After culture was finished, the medium was removed, and the cells were recovered by treatment with trypsin (DIFCO) and suspended in 4 ml of phosphate buffered saline (PBS) and a predetermined amount ( 1/40) of this suspension was used to measure the number of cells in a Coultar counter (Sysmex Co.) to determine the degree of cell proliferation.
The degree of cell proliferation was determined according to the following equations:
Degree of cell proliferation (%)=(number of cells in sample)/(number of cells in control)×100
The remainder of the cell suspension was centrifuged and then washed with 5% trichloroacetic acid, then with ethanol/ethyl ether (3:1 by volume), and with ethyl ether and the cells were dried, and 2N—NaOH was added thereto to dissolve (melanin in) the cells under heating at 70° C. and measured for its optical density (OD) at 420 nm. Using a calibration curve of synthetic melanin, the amount of melanin/million cells was determined from the OD and the degree of inhibition of melanin production was determined according to the following equation:
Degree of inhibition of melanin (%)=(amount of melanin in control−amount of melanin in sample)/(amount of melanin in control)×100

[2] = system: Propinibadterium Acnes ATCC 12818; assay: Anti-bacterial activity test, liquid medium dilution method (anaerobic); format: cell-based; details: Pa-1, anaerobic
Protocol: (§1) The aerobic microorganisms were examined in an agar medium dilution method and the anaerobic microorganisms were examined in a liquid medium dilution method under anaerobic culture conditions. 10 ml GAM broth (Nissui) was introduced into each test tube equipped with a cap and sterilized. 100 micro-liter of the sample solution prepared for agar medium dilution method was added to each test tube and lightly stirred, and 100 micro-liter test microbial solution (10^7 CFU/ml) was added thereto, then capped and incubated at 37° C. The test microbial solution was prepared by introducing 100 micro-liter stock microbial solution into 10 ml GAM broth in a test tube then capping the tube and fermenting it at 37° C. overnight.

[3] = system: streptococcus mutans JCM 5157; assay: as above; format: cell-based; details: Su-1, anaerobic
Protocol: as §1

[4] = system: Human-derived normal skin fibroblasts (NB1RGB); assay: Test of cell activating activity (fibroblast proliferation); format: cell-based; details: 8.0 ppm, relative to ethanol control (100)
Protocol: Human-derived normal skin fibroblasts (NB1RGB: Institute of Physical and Chemical Research) were suspended into DMEM containing 10% FBS to give a concentration of 20,000 cells/ml, and 5 ml each of this cellular suspension was introduced into each of 25 cm^2 bottles, cultured at 37° C. in the presence of 5% carbon dioxide for 24 hours. To each bottle, was added 10 micro-liter (0.2%) of the ethanol solution containing the compound to give the final concentration shown in Table 8. The cells were cultured for an additional 3 days. After 3 days the old medium was discarded and 5 ml fresh medium was added, and the sample was further added thereto. After this exchange of the medium, the cells were further cultured for another 3 days. Then cells were removed with trypsin and the number of cells in each bottle was counted with a Coultar counter. Simultaneously, as the control, only ethanol was added and the NB1RGB cells were cultured and the number of cells were counted in the same manner. The number of cells in each bottle to which the sample had been added was determined as a relative value to the number (as 100) of cells in the control after cultured, and the results are shown in Table 8.

[5] = system: Corynebacterium minutissimum ATCC 23348; assay: Anti-bacterial activity test, agar medium dilution method; format: cell-based; details: Cm-1
Protocol: (§2) The aerobic microorganisms were examined in an agar medium dilution method and the anaerobic microorganisms were examined in a liquid medium dilution method under anaerobic culture conditions. Muller Hinton agar medium (DIFCO) was heated and dissolved and 10 ml of the medium was introduced into each test tube, sterilized and used. The sample was prepared by dissolving in ethanol and the resulting ethanol solution was diluted 2-fold serially with ethanol, and 100 micro-liters of sample solution were added to 10 ml of each dissolved agar medium, then stirred, introduced into a Petri dish of 9 cm in diameter, and solidified at room temperature. Each test microorganism in a well grown slant was inoculated via one loop of platinum into 10 ml Muller Hinton broth (DIFCO) and cultured with shaking at 27° C. for 24 hours and used as a microbial fluid. This fluid was diluted at 10^8 CFU (Colony forming unit)/ml, and 5 micro-liters of the diluted fluid were inoculated onto the agar and cultured at 37° C. overnight. Inoculation of the microorganism was conducted using microplanter MIT-P for 27 tubes test microorganisms (Sakuma Seisakusho K. K.).

[6] = system: Corynebacterium xerosis JCM 1324; assay: as above; format: cell-based; details: Cx-2
Protocol: as §2

[7] = system: Staphylococcus epidermidis var. H-6; assay: as above; format: cell-based; details: Se-2
Protocol: as §2

[8] = system: Malassezia furfur IFO 0656; assay: as above; format: cell-based; details: Mf-1
Protocol: as §2

[9] = system: Bacillus subtilis PCI 219 IFO 3134; assay: as above; format: cell-based; details: Bs-1
Protocol: as §2

[10] = system: Staphylococcus epidermidis JCM 2414; assay: as above; format: cell-based; details: Se-1
Protocol: as §2

[11] = system: Staphylococcus aureus IFO 12732; assay: as above; format: cell-based; details: Sa-3
Protocol: as §2

[12] = system: B16 melanoma cells; assay: Combination test with existing tyrosinase inhibitors (method of Test Example 1); format: cell-based; details: 0.4 ppm, alone; Table 2, combined use with arbutin
Protocol: B16 melanoma cells were suspended (10,000 cells/ml) in DMEM (Dulbecco's modified eagle medium) containing 10% FBS (fetal bovine serum) and 8 ml of the suspension was added to a cell culture bottle with a 25 cm^2 bottom surface area, and cultured at 37° C. in the presence of 5% carbon dioxide for 3 days. After 3 days of culture, the old medium was exchanged with 8 ml of fresh medium. 40 micro-liters of a sample solution, in which compounds of the present invention had been dissolved in ethanol to give a final concentration shown in the table, were further added thereto. As the control, ethanol only was added. After the medium change, the cells were further cultured for 3 days under the same conditions. […] Degree of cell proliferation (%)=(number of cells in sample)/(number of cells in control)×100 […] Using a calibration curve of synthetic melanin, the amount of melanin/million cells was determined from the OD and the degree of inhibition of melanin production was determined according to the following equation: Degree of inhibition of melanin (%)=(amount of melanin in control−amount of melanin in sample)/(amount of melanin in control)×100 […]

[13] = system: mushroom-derived tyrosinase; assay: Mushroom tyrosinase inhibition test; format: biochemical; details: 25 ppm, L-tyrosine substrate, 37° C. 30 minutes
Protocol: After reaction, the absorbance (OD) at a wavelength of 490 nm was measured and the degree of inhibition of tyrosinase reaction was determined according to the following equation. […] Sample: The buffer, the enzyme solution, the substrate solution and the sample solution Sample-free: The buffer, the enzyme solution and the substrate solution Blank: The buffer and the enzyme solution

[14] = target: T1, tyrosinase in B16 melanoma cells (Mus musculus, UniProt P11344); assay: Test of tyrosinase inhibition in B16 melanoma cells (crude enzyme solution); format: biochemical; details: 25 ppm, L-DOPA substrate, 37° C. 3 hours
T1 construct: the resulting supernatant was used as a crude enzyme solution; endogenous in cells; host or cells: B16 melanoma cells (Triton X100 lysate, sonicated, 11,000 G supernatant)
T1 sequence (P11344 19-533): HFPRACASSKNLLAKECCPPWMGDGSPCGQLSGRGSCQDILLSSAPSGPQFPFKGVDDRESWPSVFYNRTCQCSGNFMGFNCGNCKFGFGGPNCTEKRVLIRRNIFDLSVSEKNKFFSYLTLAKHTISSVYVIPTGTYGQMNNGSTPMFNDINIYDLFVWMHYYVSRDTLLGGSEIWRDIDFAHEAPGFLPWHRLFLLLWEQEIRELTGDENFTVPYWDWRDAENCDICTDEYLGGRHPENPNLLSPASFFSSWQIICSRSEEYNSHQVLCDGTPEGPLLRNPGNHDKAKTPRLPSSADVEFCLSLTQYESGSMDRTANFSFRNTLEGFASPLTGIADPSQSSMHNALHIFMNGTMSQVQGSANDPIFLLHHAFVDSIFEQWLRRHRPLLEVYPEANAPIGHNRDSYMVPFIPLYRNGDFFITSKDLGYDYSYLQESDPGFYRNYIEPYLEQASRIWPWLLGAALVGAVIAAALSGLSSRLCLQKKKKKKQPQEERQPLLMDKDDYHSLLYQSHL
Protocol: B16 melanoma cells were cultured for 3 days in DMEM containing 10% FBS at 37° C. in the presence of 5% carbon dioxide. The cells proliferated after culture were recovered by treatment with trypsin, then suspended in PBS containing 0.1% Triton X100 at a density of ten million cells/ml and disrupted by sonication. The product obtained was centrifuged at 11,000 G for 20 minutes, and the resulting supernatant was used as a crude enzyme solution. Added thereto was 0.2 ml of crude enzyme solution. The mixture was preliminarily kept at 37° C. for 5 minutes, and 0.2 ml L-DOPA solution (0.5 mg/ml) was added as the substrate, and the mixture was kept at 37° C. for 3 hours.

[15] = system: UV Ray-induced Pigment Stains; assay: Effect of diminishing UV ray-induced pigment stains in guinea pigs; format: in vivo, brown guinea pigs; details: 7% ethanol solution applied once per day on UVB-irradiated skin
Description: Hair was carefully removed from the back of 5 brown guinea pigs, and a shielding plate provided with four 2.5 cm×2.5 cm openings was attached to the portion from which hair had been removed, followed by irradiating it 3 times every second day with UVB rays at an intensity of 450 mj/cm^2. Immediately after the irradiation of UVB rays, a 70 micro-liters sample was applied onto the irradiated site once per day for 35 days, and the amount of pigment diminished by this treatment was examined on the days shown in Table 5. […]
For evaluation of the activity, each application site was measured by a calorimeter (CR200b, Minolta Co Ltd.). ΔLx is the difference between the L value after the sample application (value changing with time) and the L value of the portion before the sample application started, and then ΔΔL value was determined by subtracting ΔLo value (i.e. the value similarly determined for the portion to which ethanol was applied) from the ΔLx value. The ΔΔL value can be determined according to the equation: […]
Lo: L value of the test site (site to which the sample was applied) before sample application
Lx : L value of the test site (site to which the sample was applied) on Day x after sample application
L′o : L value of the control site (site to which ethanol was applied) before ethanol application
L′x : L value of the control site (site to which ethanol was applied) on Day x after ethanol application

labden-15-oic acid [Compound 10]
Degree of melanin inhibition ([1]; 6.3 ppm, 3 days): 83%
Degree of cell proliferation ([1]; 6.3 ppm): 97%
MIC [2]: 12.5 ppm
MIC [3]: 6.3 ppm
Degree of cell proliferation of fibroblasts [4]: 126%
MIC [5]: 6.3 ppm
MIC [6]: 6.3 ppm
MIC [7]: 6.3 ppm
MIC [8]: 6.3 ppm
MIC [9]: 6.3 ppm
MIC [10]: 6.3 ppm
MIC [11]: 6.3 ppm

CC1=C(CCC(C)CC(=O)O)C2(C)CCCC(C)(C)C2CC1 (stereo not drawn) [Compound 1, labd-8-en-15-oic acid]
Degree of melanin inhibition ([1]; 3.1 ppm, 3 days): 80%
Degree of cell proliferation ([1]; 3.1 ppm): 109%
Degree of cell proliferation [12]: 115%
Degree of melanin inhibition [12]: 22%
MIC [2]: 12.5 ppm
MIC [3]: 6.3 ppm
Degree of inhibition of mushroom tyrosinase [13]: 0%
Degree of inhibition of tyrosinase in B16 melanoma cells [14]: 0%
MIC [5]: 6.3 ppm
MIC [6]: 12.5 ppm
MIC [7]: 6.3 ppm
MIC [8]: 6.3 ppm
MIC [9]: 6.3 ppm
MIC [10]: 6.3 ppm
MIC [11]: 12.5 ppm

O=c1cc(CO)occ1O [Kojic acid, reference compound]
Degree of cell proliferation ([1]; 200.00 ppm): 94%
inhibition at 200 ppm ([1]; Mus musculus, 72 h, 200.00 ppm, 3 days, read-out: Degree of melanin inhibition): 34%
ΔΔL ([15]; Day 14): 1.32
ΔΔL ([15]; Day 28): 1.52
ΔΔL ([15]; Day 35): 1.40
Degree of inhibition of mushroom tyrosinase [13]: 67%
